Assay results reported in patent publication US20240325489A1, “CONNEXIN 43 FOR USE IN THE TREATMENT OF RETINOBLASTOMA PROTEIN POSITIVE TUMOURS” (FUNDACIÓN PROFESOR NOVOA SANTOS, priority 2021, published 2024).
Entries after “also recorded” stand apart in the source; their conditions may differ.

Columns and labels:
MCF7 cells [1] = assay: Colony formation assay; type: cell-based, human; conditions: for reduction in cell proliferation: FIG. 3c, MCF7, 500 nM Palbociclib 7 days, compared with untreated control
Protocol: (§1) Retroviral infection was used to overexpress Cx43 in MCF7 cells. Retroviral particles were generated by transfecting pLPCX-Cx43 and pLPCX-EV plasmids, kindly donated by Dr. Trond Aasen, and retroviral helper plasmids (vsvg and gag-pol) with Polyethylenimine (PEI) in HEK293T packaging cells for 48 h. The supernatant was then filtered with 0.45 μm filters and applied to MCF7 cells in the presence of 4 μg/ml polybrene (hexadimethrine bromide; Sigma-Aldrich) following 3 rounds of infection. Cells were subsequently selected with the appropriate antibiotic resistance using 0.5 μg/ml puromycin (Sigma).
(§2) Cells were treated with 250 nM of Palbociclib (PD0332991) (APExBIO), 500 nM Abemaciclib (LY2835219) (Selleckchem) or 500 nM Ribociclib (LEE011) (Selleckchem) for 7 days. All treatments were done using DMEM supplemented with 10% FBS and 100 U/mL penicillin and 100 μg/ml streptomycin. Media was replaced every 2 days.
(§3) Colony formation assays were performed plating 5×10^3 to 5×10^4 cells per well onto 6-12 well plates and grown for 7-15 days. Medium was replaced every 48 h. The cells were washed with warm Saline Solution and fixed with cold 4% PFA for 15 min. Cells were washed with PBS and stained with 0.05% of crystal violet (Sigma-Aldrich) for 15 min. After staining, the cells were washed with distilled water and dried at room temperature. The colonies were quantified by diluting crystal violet in 30% acetic acid and 100 μL of the solution was collected to measure the absorbance at 570 nm using a NanoQuant microplate reader Infinite M200 (TECAN).
HEK 293T cells were seeded onto 162 cm^2 culture flasks (Corning, Sigma-Aldrich) until confluence (80%-90%). Cells were washed three times with PBS and cultured for 48 h in DMEM 0% FBS. Supernatants were collected and centrifuged at 1800 rpm for 5 min. Pellet was discarded and supernatants were filtered through a 0.22 μm filter and then the filtered supernatants were centrifuged at 100,000 g for 90 min at 4° C. (Optimal-90K ultracentrifuge) using 70 Ti rotor (Beckman Coulter). Supernatants were discarded and pellet-containing sEVs were washed with PBS and centrifuged at 100,000 g for 90 min at 4° C. The pellet with sEVs was resuspended in culture medium. Target cells (MCF7 or T47D cells) were treated with sEVs in the presence/absence of CDK 4/6 inhibitors for 48 h. 3 rounds of treatment were performed. For NTA Nanosight NS300 analysis and sEV protein and RNA content determination, a second ultracentrifugation with PBS was performed, and sEV pellet was resuspended in PBS. […]

T47D cells [2] = assay: IC50 calculation, Palbociclib dose-response, crystal violet; type: cell-based; conditions: Homo sapiens, 168 h; T47D (lower Cx43 than MCF7-Cx43), 7 days treatment
Protocol: (§4) Rb positive cell lines MCF7 (breast cancer), T47D (breast cancer) and A375 (melanoma) were cultured in Dulbecco's modified Eagle's medium (DMEM) (Lonza) supplemented with 10% fetal bovine serum (FBS) (Gibco, Thermo Fisher Scientific) and 100 U/mL penicillin and 100 μg/ml streptomycin (Gibco, Thermo Fisher Scientific). HT29 (colon adenocarcinoma) was cultured in McCoy'S 5A medium (Sigma-Aldrich) supplemented with 10% FBS and 100 U/mL penicillin and 100 μg/ml streptomycin. Cells were maintained at 37° C. in 5% CO2 humidified incubator (SANYO CO2). The medium was changed every 2 days. IC50s were calculated using cell cultures from MCF7 (EV and Cx43) and T47D cells treated with different concentrations of the CDK4/6 inhibitor Palbociclib for 7 days. Cells were stained with crystal violet and cell number was assessed measuring the absorbance at 570 nm.

[3] = tested on: MCF7 cells overexpressing Cx43 (MCF7 Cx43); assay: as above; type: cell-based; conditions: Homo sapiens, 168 h; MCF7 containing Cx43, 7 days treatment, absorbance 570 nm
Protocol: as §4, with “days.” for “days. IC50s were calculated using cell cultures from MCF7 (EV and Cx43) and T47D cells treated with different concentrations of the CDK4/6 inhibitor Palbociclib for 7 days. Cells were stained with crystal violet and cell number was assessed measuring the absorbance at 570 nm.”
as §1, with “Cells were subsequently selected with the appropriate antibiotic resistance using 0.5 μg/ml puromycin (Sigma).” left out
(§5) IC50s were calculated using cell cultures from MCF7 (EV and Cx43) and T47D cells treated with different concentrations of the CDK4/6 inhibitor Palbociclib for 7 days. Cells were stained with crystal violet and cell number was assessed measuring the absorbance at 570 nm.

[4] = tested on: MCF7 cells expressing the vector control (EV); assay: as above; type: cell-based; conditions: Homo sapiens, 168 h; MCF7 EV (no Cx43), 7 days treatment, absorbance 570 nm
Protocol: as §4, with “days.” for “days. IC50s were calculated using cell cultures from MCF7 (EV and Cx43) and T47D cells treated with different concentrations of the CDK4/6 inhibitor Palbociclib for 7 days. Cells were stained with crystal violet and cell number was assessed measuring the absorbance at 570 nm.”
as §1, with “Cells were subsequently selected with the appropriate antibiotic resistance using 0.5 μg/ml puromycin (Sigma).” left out
as §5

MCF7 cells [5] = assay: Hemichannel activity (ATP release) and gap-junction communication (parachute assay); type: cell-based, human; conditions: MCF7 upon Cx43 restoration vs EV
MCF7 cells [6] = assay: Senescence and apoptosis markers (western-blot, qPCR, SA-β-galactosidase); type: cell-based, human
Protocol: Cells were grown onto coverslips and fixed with 4% paraformaldehyde (PFA) for 10 min at room temperature (RT). Cells were then washed twice with PBS and permeabilized by incubation with 0.2% Triton X-100 (Sigma) in PBS for 10 min at RT. After a PBS wash, cells were blocked 30 min at RT using 1% BSA in PBS supplemented with 0.1% Tween-20 (PBST). Primary antibodies were diluted in 1% BSA-PBST and incubated overnight (anti-Cx43 (#C6219), Sigma-Aldrich 1:1000; anti-Tubulin (T9026). Cells were then washed with PBS and incubated with secondary antibodies for 1 h at RT. HRP-conjugated secondary antibodies used were anti-mouse (NA-931, Sigma-Aldrich) and anti-rabbit ([…], Sigma-Aldrich). Cells were washed with PBS and fixed with 4% paraformaldehyde for 15 mins at room temperature. […] (Senescence Cells Histochemical Staining Kit Ref […]; Sigma). Cells were imaged using a light microscope at 20× magnification and single representative images of each well were taken. Total RNA was isolated from cells using TRI Reagent® RT (Vitro Bio) according to manufacturer's protocol. 200 μL of chloroform were added to the tubes and samples were incubated for 10 min at 4° C. and then centrifugated at 14,000 g for 15 min at 4° C. After centrifugation, the aqueous phase (upper) are obtained and transferred to a new tube with 500 μL of isopropanol and samples were vortexed 15 sec. The tubes centrifugated at 14,000 g for 15 min at 4° C. Supernatant was discarded, and the RNA pellets were washed with 1 mL of 70% ethanol and centrifugated for 5 min at 7,000 g at 4° C. The supernatants were discarded, and RNA pellets were air dry. RNA was treated with DNase I, RNase free (Thermo Fisher Scientific) following manufacturer's protocol. RNA samples were quantified in a Nanodrop® ND-1000 (Thermo Fisher Scientific). 1 μg of RNA was used to synthesize complementary DNA (cDNA) with the SuperscriptTM IV VILOTM Master Mix (Invitrogen, Thermo Fisher Scientific) following manufacturer's protocol. cDNA samples are quantified in a Nanodrop® ND-1000 (Thermo Fisher Scientific) and resuspended in DNase/RNase/Protease-free water (Sigma-Aldrich). 5 μL of cDNA (1 μg) were mixed with 0.5 μL of primer mix (10 μM each primer), 10 μL of Applied BiosystemsTM PowerUPTM SYBRTM Green Master Mix (Applied Biosystems, Thermo Fisher Scientific) and complete with dH2O until 20 μL per well on LightCycler® 480 System (Roche). The program consisted on a first denaturing cycle of 10 min at 95° C. followed by 30-55 amplification cycles for 10 seconds (sec) at 95° C., 30 sec at 60° C. for annealing and 12 sec at 72° C. for extension. The primers used are listed below: […]

A375 melanoma cells = assay: Colony formation assay; type: cell-based, human; conditions: A375 Cx43 vs EV, 7 days, 250 nM Palbociclib, 500 nM Abemaciclib and Ribociclib
Protocol: (§6) Cell lines (A375 and HT29) were transfected by electroporation to overexpress Cx43. The Amaxa® Cell Line Nucleofector® Kit V (Lonza) was used to transfect cells in a Cell Line Nucleofector™ Device (Lonza). A million cells were harvested and resuspended in 100 μL of Nucleofector® solution. 3 μg of the corresponding plasmid was added, and the mixture was transferred into an electroporation cuvette using the U-28 program. Cell lines were transfected with pIRESpuro2 plasmid construct (Clontech) containing the human Cx43 sequence, kindly donated by Arantxa Tabernero (Institute of Neuroscience of Castilla y León, University of Salamanca, Spain). The transfected cells were seeded in culture medium and 24 hours (h) post-transfection the medium was replaced with complete medium containing puromycin dihydrochloride (Tocris, Bioscience) at different concentrations depending of the cell line (0.5 μg/mL to 2 μg/mL). […]
(§7) Colony formation assays were performed plating 5×10^3 to 5×10^4 cells per well onto 6-12 well plates and grown for 7-15 days. […] The colonies were quantified by diluting crystal violet in 30% acetic acid and 100 μL of the solution was collected to measure the absorbance at 570 nm using a NanoQuant microplate reader Infinite M200 (TECAN).

[7] = tested on: HT29 colon adenocarcinoma cells; assay: Proliferation of colon cells (colony formation); type: cell-based; conditions: HT29 Cx43 vs EV, 7 days, 250 nM Palbociclib, 500 nM Abemaciclib and Ribociclib
Protocol: as §6, §7

T47D cells [8] = assay: Colony formation assay; type: cell-based; conditions: 7 days treatment
Protocol: as §2, §3
HEK 293T cells were seeded onto 162 cm^2 culture flasks (Corning, Sigma-Aldrich) until confluence (80%-90%). Cells were washed three times with PBS and cultured for 48 h in DMEM 0% FBS. Supernatants were collected and centrifuged at 1800 rpm for 5 min. Pellet was discarded and supernatants were filtered through a 0.22 μm filter and then the filtered supernatants were centrifuged at 100,000 g for 90 min at 4° C. […]

Molecule | reduction in cell proliferation (MCF7 cells [1]) | IC50 (T47D cells [2]) | IC50 [3] | IC50 [4] | cell proliferation / colony formation capacity (MCF7 cells [1]; MCF7, 7 days) | hemichannels activity and gap-junction intercellular communication (MCF7 cells [5]) | β-galactosidase activity (MCF7 cells [6]; MCF7, SA-β-galactosidase staining) | apoptotic markers Bax and Bcl2 protein (MCF7 cells [6]; MCF7, western-blot) | levels of senescent markers p21 and p53 (MCF7 cells [6]; MCF7, western-blot, vs vector control (EV)) | SASP factors IL6, IL8, MMP9 (qPCR) (MCF7 cells [6]; MCF7 overexpressing Cx43 vs EV) | effect of Cx43 overexpression on inhibitor efficacy (reduction in proliferation) (A375 melanoma cells) | effect of Cx43 overexpression on inhibitor efficacy (reduction in proliferation) [7] | effect of Cx43 overexpression on the CDK4/6 inhibitor's effect on cell proliferation (MCF7 cells [1]; MCF7 Cx43 vs EV, 7 days, colony formation) | colony formation capacity (T47D cells [8])
CC(=O)c1c(C)c2cnc(Nc3ccc(N4CCNCC4)cn3)nc2n(C2CCCC2)c1=O [Palbociclib] | around 40% | 121 nM | 66.8 nM | 282 nM |  |  |  |  |  |  |  |  |  | 
Cx43: connexin 43 overexpressed in tumour cells by retroviral vector or plasmid | 50% |  |  |  | induces proliferation arrest; also recorded: significantly reduced cell proliferation and colony formation capacity | increase in hemichannels activity and gap-junction intercellular communication | increases β-galactosidase activity | increases the pro-apoptotic protein Bax and reduces Bcl2 | increases the levels of the senescent markers p21 and p53 | increases the secretion of different cytokines such as IL6, IL8 and MMP9 |  |  |  | 
CN(C)C(=O)c1cc2cnc(Nc3ccc(N4CCNCC4)cn3)nc2n1C1CCCC1 [Ribociclib] |  |  |  |  |  |  |  |  |  |  | increases the efficacy | increases the efficacy | enhances the effect | effectively respond
